Measured values reported in ChEMBL document CHEMBL3870312, “Rational modification of donepezil as multifunctional acetylcholinesterase inhibitors for the treatment of Alzheimer's disease” (Eur J Med Chem, 2016).
Active and inactive are the calls of the source. The rule behind the calls is not given here.

Target: T1, Acetylcholinesterase (Homo sapiens, UniProt P22303)
Experiment: Mixed-type inhibition of human erythrocyte AChE preincubated for 15 mins followed by addition of acetylthiocholine iodide as substrate in varying concentrations by Lineweaver-Burk reciprocal plot analysis
Settings: not given

T1 sequence (P22303 whole entry): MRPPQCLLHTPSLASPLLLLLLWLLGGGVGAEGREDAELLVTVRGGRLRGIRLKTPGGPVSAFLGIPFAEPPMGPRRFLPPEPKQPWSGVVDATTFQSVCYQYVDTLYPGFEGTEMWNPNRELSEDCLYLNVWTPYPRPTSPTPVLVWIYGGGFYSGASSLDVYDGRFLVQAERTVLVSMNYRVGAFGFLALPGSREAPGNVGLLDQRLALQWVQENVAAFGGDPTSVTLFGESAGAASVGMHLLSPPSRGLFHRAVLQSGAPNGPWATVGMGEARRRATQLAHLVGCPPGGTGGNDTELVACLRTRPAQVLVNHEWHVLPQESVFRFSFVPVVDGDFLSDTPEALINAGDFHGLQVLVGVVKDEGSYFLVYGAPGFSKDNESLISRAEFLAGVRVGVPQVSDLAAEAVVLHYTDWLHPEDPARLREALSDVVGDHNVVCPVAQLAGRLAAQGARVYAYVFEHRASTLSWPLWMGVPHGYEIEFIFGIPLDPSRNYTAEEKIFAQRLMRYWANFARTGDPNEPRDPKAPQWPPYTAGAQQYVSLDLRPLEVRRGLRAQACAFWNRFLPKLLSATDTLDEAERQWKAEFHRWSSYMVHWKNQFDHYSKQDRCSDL

Compound	inhibition
COc1cc2c(cc1OC)C(=O)C(CC1CCN(Cc3ccccc3F)CC1)C2 (stereo not drawn)	Active
COc1cc2c(cc1OC)C(=O)C(CC1CCN(Cc3cccc(C)n3)CC1)C2 (stereo not drawn)	Active

Tested on: not listed separately
Experiment: Metal chelating activity assessed as Zn2+-compound complex formation at 50 uM by fluorescence spectrophotometry
Format: physicochemical
Settings: not given

Compound	Activity
COc1cc2c(cc1OC)C(=O)C(CC1CCN(Cc3cccc(C)n3)CC1)C2 (stereo not drawn)	Active

Tested on: not listed separately
Experiment: Metal chelating activity of the compound assessed as formation of ferric complex at 50 uM by fluorescence spectrophotometry
Format: physicochemical
Settings: not given

Compound	Activity
COc1cc2c(cc1OC)C(=O)C(CC1CCN(Cc3cccc(C)n3)CC1)C2 (stereo not drawn)	Active

Tested on: not listed separately
Experiment: Metal chelating activity of the compound assessed as formation of copper complex at 50 uM by fluorescence spectrophotometry
Format: physicochemical
Settings: not given

Compound	Activity
COc1cc2c(cc1OC)C(=O)C(CC1CCN(Cc3cccc(C)n3)CC1)C2 (stereo not drawn)	Active

Tested on: not listed separately
Experiment: Metal chelating activity of the compound assessed as formation of copper complex at 10 uM by UV-vis spectrometry
Format: physicochemical
Settings: not given

Compound	Activity
COc1cc2c(cc1OC)C(=O)C(CC1CCN(Cc3cccc(C)n3)CC1)C2 (stereo not drawn)	Active

Tested on: not listed separately
Experiment: Metal chelating activity assessed as mole fraction of compound required to show 1:1 stoichiometry for Cu2+-compound complex at 10 uM by UV-vis spectrometry
Format: physicochemical
Settings: not given

Compound	Activity [molar ratio]
COc1cc2c(cc1OC)C(=O)C(CC1CCN(Cc3cccc(C)n3)CC1)C2 (stereo not drawn)	0.9

Tested on: not listed separately
Experiment: Inhibition of copper-mediated aggregation of amyloid beta (1 to 42 residues) (unknown origin) incubated for 46 to 48 hrs by thioflavin-T binding assay
Format: physicochemical
Settings: not given

Compound	inhibition (INH)
COc1cc2c(cc1OC)C(=O)C(CC1CCN(Cc3cccc(C)n3)CC1)C2 (stereo not drawn)	Dose-dependent effect

Species: Rattus norvegicus
Experiment: Cytotoxicity against rat PC12 cells assessed as reduction in cell viability at 3.125 to 50 uM after 24 hrs by MTT assay
Format: toxicity
Settings: pc-12, 24 h

Compound	Activity
COc1cc2c(cc1OC)C(=O)C(CC1CCN(Cc3ccc(O)c4ncccc34)CC1)C2 (stereo not drawn)	Non-Toxic
COc1cc2c(cc1OC)C(=O)C(CC1CCN(Cc3ccccc3F)CC1)C2 (stereo not drawn)	Non-Toxic
COc1cc2c(cc1OC)C(=O)C(CC1CCN(Cc3cccc(C)n3)CC1)C2 (stereo not drawn)	Non-Toxic
COc1cc2c(cc1OC)C(=O)C(CC1CCN(Cc3ncccc3C)CC1)C2 (stereo not drawn)	Non-Toxic
COc1cc2c(cc1OC)C(=O)C(CC1CCN(Cc3ccc(C)cc3)CC1)C2 (stereo not drawn)	Non-Toxic

Tested on: PC-12
Experiment: Neuroprotective activity against Cu2+-amyloid beta (1 to 42 residues) induced cell death in rat PC12 cells assessed as increase in cell viability at 2.5 to 20 uM preincubated for 24 hrs followed by Cu2+-amyloid beta (1 to 42 residues) addition measured after 24 hrs by MTT assay
Format: functional, cell-based
Settings: not given

Compound	Activity
COc1cc2c(cc1OC)C(=O)C(CC1CCN(Cc3ccc(O)c4ncccc34)CC1)C2 (stereo not drawn)	Active
COc1cc2c(cc1OC)C(=O)C(CC1CCN(Cc3cccc(C)n3)CC1)C2 (stereo not drawn)	Active

Tested on: PC-12
Experiment: Neuroprotective activity against amyloid beta (1 to 42 residues) induced cell death in rat PC12 cells assessed as increase in cell viability at 10 to 20 uM preincubated for 24 hrs followed by amyloid beta (1 to 42 residues) addition measured after 24 hrs by MTT assay
Format: functional, cell-based
Settings: not given

Compound	Activity
COc1cc2c(cc1OC)C(=O)C(CC1CCN(Cc3ccc(O)c4ncccc34)CC1)C2 (stereo not drawn)	Active
COc1cc2c(cc1OC)C(=O)C(CC1CCN(Cc3cccc(C)n3)CC1)C2 (stereo not drawn)	Active

Tested on: PC-12
Experiment: Neuroprotective activity against Cu2+-amyloid beta (1 to 42 residues) induced cell death in rat PC12 cells by phase-contrast microscopy analysis
Format: functional, cell-based
Settings: not given

Compound	Activity
COc1cc2c(cc1OC)C(=O)C(CC1CCN(Cc3ccc(O)c4ncccc34)CC1)C2 (stereo not drawn)	Active
COc1cc2c(cc1OC)C(=O)C(CC1CCN(Cc3cccc(C)n3)CC1)C2 (stereo not drawn)	Active

Tested on: PC-12
Experiment: Neuroprotective activity against amyloid beta (1 to 42 residues) induced cell death in rat PC12 cells by phase-contrast microscopy analysis
Format: functional, cell-based
Settings: not given

Compound	Activity
COc1cc2c(cc1OC)C(=O)C(CC1CCN(Cc3ccc(O)c4ncccc34)CC1)C2 (stereo not drawn)	Active
COc1cc2c(cc1OC)C(=O)C(CC1CCN(Cc3cccc(C)n3)CC1)C2 (stereo not drawn)	Active

Tested on: Mus musculus
Experiment: Cognitive enhancement activity in po dosed scopolamine-induced memory deficit Kunming mouse model assessed as increase in step-through latency time treated for 1 hr before training followed by scopolamine challenge 30 mins before training measured 24 hrs after training trial by passive avoidance test
Format: functional, organism-based
Settings: not given

Compound	Activity
COc1cc2c(cc1OC)C(=O)C(CC1CCN(Cc3ccccc3F)CC1)C2 (stereo not drawn)	Dose-dependent effect
COc1cc2c(cc1OC)C(=O)C(CC1CCN(Cc3cccc(C)n3)CC1)C2 (stereo not drawn)	Dose-dependent effect

Tested on: Mus musculus
Experiment: Toxicity in scopolamine-induced memory deficit Kunming mouse model assessed as change in body weight at 2.5 to 10 mg/Kg, po for 7 days
Format: organism-based
Settings: in vivo, 168 h

Compound	Activity
COc1cc2c(cc1OC)C(=O)C(CC1CCN(Cc3ccccc3F)CC1)C2 (stereo not drawn)	Non-Toxic
COc1cc2c(cc1OC)C(=O)C(CC1CCN(Cc3cccc(C)n3)CC1)C2 (stereo not drawn)	Non-Toxic

Tested on: Mus musculus
Experiment: Toxicity in scopolamine-induced memory deficit Kunming mouse model assessed as effect on survival at 2.5 to 10 mg/Kg, po for 7 days
Format: organism-based
Settings: in vivo, 168 h

Compound	Activity
COc1cc2c(cc1OC)C(=O)C(CC1CCN(Cc3ccccc3F)CC1)C2 (stereo not drawn)	Non-Toxic
COc1cc2c(cc1OC)C(=O)C(CC1CCN(Cc3cccc(C)n3)CC1)C2 (stereo not drawn)	Non-Toxic

Tested on: Mus musculus
Experiment: Hepatotoxicity in scopolamine-induced memory deficit Kunming mouse model assessed as increase in alanine aminotransferase levels at 10 mg/kg, po for 6 days
Format: toxicity, organism-based
Settings: in vivo, 144 h

Compound	Activity
COc1cc2c(cc1OC)C(=O)C(CC1CCN(Cc3ccccc3F)CC1)C2 (stereo not drawn)	Non-Toxic
COc1cc2c(cc1OC)C(=O)C(CC1CCN(Cc3cccc(C)n3)CC1)C2 (stereo not drawn)	Non-Toxic

Tested on: Mus musculus
Experiment: Hepatotoxicity in scopolamine-induced memory deficit Kunming mouse model assessed as increased aspartate aminotransferase at 10 mg/Kg, po for 6 days
Format: toxicity, organism-based
Settings: in vivo, 144 h

Compound	Activity
COc1cc2c(cc1OC)C(=O)C(CC1CCN(Cc3ccccc3F)CC1)C2 (stereo not drawn)	Non-Toxic
COc1cc2c(cc1OC)C(=O)C(CC1CCN(Cc3cccc(C)n3)CC1)C2 (stereo not drawn)	Non-Toxic

Tested on: Mus musculus
Experiment: Hepatotoxicity in scopolamine-induced memory deficit Kunming mouse model assessed as increase in number of inflammatory cells in portal fields of liver at 10 mg/Kg, po for 6 days by hematoxylin and eosin-staining based microscopic analysis
Format: toxicity, organism-based
Settings: in vivo, 144 h

Compound	Activity
COc1cc2c(cc1OC)C(=O)C(CC1CCN(Cc3ccccc3F)CC1)C2 (stereo not drawn)	Non-Toxic
COc1cc2c(cc1OC)C(=O)C(CC1CCN(Cc3cccc(C)n3)CC1)C2 (stereo not drawn)	Non-Toxic

Tested on: Mus musculus
Experiment: Hepatotoxicity in scopolamine-induced memory deficit Kunming mouse model assessed as area of necrosis in hepatocytes at 10 mg/Kg, po for 6 days by hematoxylin and eosin-staining based microscopic analysis
Format: toxicity, organism-based, Hepatocyte
Settings: 144 h

Compound	Activity
COc1cc2c(cc1OC)C(=O)C(CC1CCN(Cc3ccccc3F)CC1)C2 (stereo not drawn)	Non-Toxic
COc1cc2c(cc1OC)C(=O)C(CC1CCN(Cc3cccc(C)n3)CC1)C2 (stereo not drawn)	Non-Toxic

Tested on: Mus musculus
Experiment: Hepatotoxicity in scopolamine-induced memory deficit Kunming mouse model assessed as distinct fatty degeneration in hepatocytes at 10 mg/Kg, po for 6 days by hematoxylin and eosin-staining based microscopic analysis
Format: toxicity, organism-based
Settings: in vivo, 144 h

Compound	Activity
COc1cc2c(cc1OC)C(=O)C(CC1CCN(Cc3ccccc3F)CC1)C2 (stereo not drawn)	Non-Toxic
COc1cc2c(cc1OC)C(=O)C(CC1CCN(Cc3cccc(C)n3)CC1)C2 (stereo not drawn)	Non-Toxic

Tested on: not listed separately
Experiment: Inhibition of copper-mediated aggregation of amyloid beta (1 to 42 residues) (unknown origin) at 20 uM incubated for 46 to 48 hrs by thioflavin-T binding assay relative to control
Format: physicochemical
Settings: not given

Compound	inhibition (INH) [%]
COc1cc2c(cc1OC)C(=O)C(CC1CCN(Cc3ccccc3F)CC1)C2 (stereo not drawn)	< 10
COc1cc2c(cc1OC)C(=O)C(CC1CCN(Cc3cccc(C)c3)CC1)C2 (stereo not drawn)	< 10

Tested on: PC-12
Experiment: Neuroprotective activity against amyloid beta (1 to 42 residues) induced cell death in rat PC12 cells assessed as increase in cell viability at 20 uM preincubated for 24 hrs followed by amyloid beta (1 to 42 residues) addition measured after 24 hrs by MTT assay
Format: functional, cell-based
Settings: not given

Compound	Activity
COc1ccc2[nH]cc(CCNC(C)=O)c2c1	Active

Target: Cholinesterase (Equus caballus, UniProt P81908)
Sequence (P81908 whole entry): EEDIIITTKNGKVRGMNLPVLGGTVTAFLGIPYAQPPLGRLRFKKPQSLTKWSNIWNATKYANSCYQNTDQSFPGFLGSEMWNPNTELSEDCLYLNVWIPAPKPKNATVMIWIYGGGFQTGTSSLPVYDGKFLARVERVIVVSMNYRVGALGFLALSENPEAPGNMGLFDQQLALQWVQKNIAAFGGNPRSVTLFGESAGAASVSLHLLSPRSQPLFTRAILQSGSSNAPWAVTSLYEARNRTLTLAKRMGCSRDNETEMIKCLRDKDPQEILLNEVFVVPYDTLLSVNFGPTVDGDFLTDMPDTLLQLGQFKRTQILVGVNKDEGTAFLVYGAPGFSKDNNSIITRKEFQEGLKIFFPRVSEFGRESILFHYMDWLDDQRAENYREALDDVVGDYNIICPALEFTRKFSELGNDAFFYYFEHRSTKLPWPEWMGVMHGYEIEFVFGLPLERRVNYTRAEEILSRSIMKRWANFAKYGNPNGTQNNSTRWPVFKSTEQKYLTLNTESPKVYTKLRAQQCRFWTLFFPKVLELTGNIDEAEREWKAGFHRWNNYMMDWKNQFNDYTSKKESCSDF
Experiment: not given
Settings: not given

Compound	IC50 [µM]
COc1cc2c(cc1OC)C(=O)C(CC1CCN(Cc3ccc(O)c4ncccc34)CC1)C2 (stereo not drawn)	7.65
COc1cc2c(cc1OC)C(=O)C(CC1CCN(Cc3ccccc3F)CC1)C2 (stereo not drawn)	3.71
COc1cc2c(cc1OC)C(=O)C(CC1CCN(Cc3cccc(C)n3)CC1)C2 (stereo not drawn)	20.5
COc1cc2c(cc1OC)C(=O)C(CC1CCN(Cc3cccc(C)c3)CC1)C2 (stereo not drawn)	5.83
COc1cc2c(cc1OC)C(=O)C(CC1CCN(Cc3ncccc3C)CC1)C2 (stereo not drawn)	15.6
COc1cc2c(cc1OC)C(=O)C(CC1CCN(Cc3ccc(C)cc3)CC1)C2 (stereo not drawn)	6.67

Target: Acetylcholinesterase (Electrophorus electricus, UniProt O42275)
Sequence (O42275 whole entry): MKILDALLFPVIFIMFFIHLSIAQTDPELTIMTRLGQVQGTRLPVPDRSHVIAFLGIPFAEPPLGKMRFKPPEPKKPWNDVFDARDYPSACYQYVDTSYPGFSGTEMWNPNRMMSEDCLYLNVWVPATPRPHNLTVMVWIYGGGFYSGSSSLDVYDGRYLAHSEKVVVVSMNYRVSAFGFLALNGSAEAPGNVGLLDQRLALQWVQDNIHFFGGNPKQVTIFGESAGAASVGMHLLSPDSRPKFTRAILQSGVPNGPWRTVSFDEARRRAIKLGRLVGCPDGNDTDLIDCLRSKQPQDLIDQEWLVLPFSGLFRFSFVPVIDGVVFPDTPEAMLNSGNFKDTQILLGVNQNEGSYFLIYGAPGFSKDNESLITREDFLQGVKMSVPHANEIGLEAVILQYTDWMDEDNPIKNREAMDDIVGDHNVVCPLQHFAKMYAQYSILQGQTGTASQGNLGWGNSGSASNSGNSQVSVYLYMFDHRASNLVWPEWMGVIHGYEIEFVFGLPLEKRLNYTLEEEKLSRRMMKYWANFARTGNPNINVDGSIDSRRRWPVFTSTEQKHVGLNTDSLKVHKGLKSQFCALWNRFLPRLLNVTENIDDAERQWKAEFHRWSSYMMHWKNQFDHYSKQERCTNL
Experiment: not given
Settings: not given

Compound	IC50 [µM]
COc1cc2c(cc1OC)C(=O)C(CC1CCN(Cc3ccc(O)c4ncccc34)CC1)C2 (stereo not drawn)	27.3
COc1cc2c(cc1OC)C(=O)C(CC1CCN(Cc3ccccc3F)CC1)C2 (stereo not drawn)	0.043
COc1cc2c(cc1OC)C(=O)C(CC1CCN(Cc3cccc(C)n3)CC1)C2 (stereo not drawn)	0.085
COc1cc2c(cc1OC)C(=O)C(CC1CCN(Cc3cccc(C)c3)CC1)C2 (stereo not drawn)	0.108
COc1cc2c(cc1OC)C(=O)C(CC1CCN(Cc3ncccc3C)CC1)C2 (stereo not drawn)	0.108
COc1cc2c(cc1OC)C(=O)C(CC1CCN(Cc3ccc(C)cc3)CC1)C2 (stereo not drawn)	0.221

Target: T1, Acetylcholinesterase
Experiment: not given
Settings: not given

Compound	IC50 [µM]
COc1cc2c(cc1OC)C(=O)C(CC1CCN(Cc3ccc(O)c4ncccc34)CC1)C2 (stereo not drawn)	20.9
COc1cc2c(cc1OC)C(=O)C(CC1CCN(Cc3ccccc3F)CC1)C2 (stereo not drawn)	0.032
COc1cc2c(cc1OC)C(=O)C(CC1CCN(Cc3cccc(C)n3)CC1)C2 (stereo not drawn)	0.073
COc1cc2c(cc1OC)C(=O)C(CC1CCN(Cc3cccc(C)c3)CC1)C2 (stereo not drawn)	0.088
COc1cc2c(cc1OC)C(=O)C(CC1CCN(Cc3ncccc3C)CC1)C2 (stereo not drawn)	0.113
COc1cc2c(cc1OC)C(=O)C(CC1CCN(Cc3ccc(C)cc3)CC1)C2 (stereo not drawn)	0.127

Target: Cholinesterase (Homo sapiens, UniProt P06276)
Sequence (P06276 whole entry): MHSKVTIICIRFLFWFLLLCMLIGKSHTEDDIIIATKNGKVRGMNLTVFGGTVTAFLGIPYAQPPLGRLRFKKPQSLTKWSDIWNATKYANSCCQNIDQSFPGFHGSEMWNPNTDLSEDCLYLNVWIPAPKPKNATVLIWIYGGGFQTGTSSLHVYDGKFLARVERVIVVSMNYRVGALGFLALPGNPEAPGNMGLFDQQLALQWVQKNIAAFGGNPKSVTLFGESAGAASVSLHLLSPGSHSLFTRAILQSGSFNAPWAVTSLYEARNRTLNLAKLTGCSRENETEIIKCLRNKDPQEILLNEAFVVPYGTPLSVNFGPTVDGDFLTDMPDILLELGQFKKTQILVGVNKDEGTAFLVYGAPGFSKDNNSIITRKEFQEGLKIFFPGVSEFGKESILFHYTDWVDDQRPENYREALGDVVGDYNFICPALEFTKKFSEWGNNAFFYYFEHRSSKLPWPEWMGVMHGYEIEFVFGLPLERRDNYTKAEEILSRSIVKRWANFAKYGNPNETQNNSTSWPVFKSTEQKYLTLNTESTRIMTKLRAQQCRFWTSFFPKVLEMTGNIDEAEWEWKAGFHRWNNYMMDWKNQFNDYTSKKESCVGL
Experiment: not given
Settings: not given

Compound	IC50 [µM]
COc1cc2c(cc1OC)C(=O)C(CC1CCN(Cc3ccccc3F)CC1)C2 (stereo not drawn)	12.8
COc1cc2c(cc1OC)C(=O)C(CC1CCN(Cc3cccc(C)n3)CC1)C2 (stereo not drawn)	65.7
COc1cc2c(cc1OC)C(=O)C(CC1CCN(Cc3cccc(C)c3)CC1)C2 (stereo not drawn)	28.1
COc1cc2c(cc1OC)C(=O)C(CC1CCN(Cc3ncccc3C)CC1)C2 (stereo not drawn)	49.2
COc1cc2c(cc1OC)C(=O)C(CC1CCN(Cc3ccc(C)cc3)CC1)C2 (stereo not drawn)	43.8

Target: Amyloid-beta precursor protein (Homo sapiens) (UniProt P05067)
Sequence (P05067 whole entry): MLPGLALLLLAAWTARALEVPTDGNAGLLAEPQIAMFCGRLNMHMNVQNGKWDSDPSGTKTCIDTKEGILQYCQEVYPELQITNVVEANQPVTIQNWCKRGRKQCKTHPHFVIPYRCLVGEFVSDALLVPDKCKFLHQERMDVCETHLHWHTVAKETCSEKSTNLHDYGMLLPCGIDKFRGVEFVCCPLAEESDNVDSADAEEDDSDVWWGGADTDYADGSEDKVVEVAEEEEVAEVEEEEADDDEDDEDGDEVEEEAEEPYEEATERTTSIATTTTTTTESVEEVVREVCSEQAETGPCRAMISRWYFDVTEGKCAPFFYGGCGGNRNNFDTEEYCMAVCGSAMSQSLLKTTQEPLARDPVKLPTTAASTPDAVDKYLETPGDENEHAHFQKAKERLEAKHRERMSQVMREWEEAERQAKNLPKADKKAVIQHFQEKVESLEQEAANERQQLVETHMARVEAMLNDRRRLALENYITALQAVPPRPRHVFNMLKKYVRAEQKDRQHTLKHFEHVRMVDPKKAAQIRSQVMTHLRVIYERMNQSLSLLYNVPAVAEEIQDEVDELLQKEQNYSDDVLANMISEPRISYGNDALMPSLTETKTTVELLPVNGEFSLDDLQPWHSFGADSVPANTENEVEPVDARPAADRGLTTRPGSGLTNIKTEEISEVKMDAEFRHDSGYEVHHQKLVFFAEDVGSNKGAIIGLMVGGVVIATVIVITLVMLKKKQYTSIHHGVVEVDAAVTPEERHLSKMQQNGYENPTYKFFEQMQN
Experiment: not given
Settings: at 20 µM

Compound	inhibition [%]
COc1cc2c(cc1OC)C(=O)C(CC1CCN(Cc3ccc(O)c4ncccc34)CC1)C2 (stereo not drawn)	51.1
COc1cc2c(cc1OC)C(=O)C(CC1CCN(Cc3ccccc3F)CC1)C2 (stereo not drawn)	> 10
COc1cc2c(cc1OC)C(=O)C(CC1CCN(Cc3cccc(C)n3)CC1)C2 (stereo not drawn)	18.5
COc1cc2c(cc1OC)C(=O)C(CC1CCN(Cc3cccc(C)c3)CC1)C2 (stereo not drawn)	> 10
COc1cc2c(cc1OC)C(=O)C(CC1CCN(Cc3ncccc3C)CC1)C2 (stereo not drawn)	29.3

Tested on: not listed separately
Experiment: in vitro
Settings: PAMPA
Description: Effective permeability of the compound after 18 hrs by PAMPA

Compound	Papp at 18 h [×10⁻⁶ cm/s]
COc1cc2c(cc1OC)C(=O)C(CC1CCN(Cc3ccc(O)c4ncccc34)CC1)C2 (stereo not drawn)	8.8
COc1cc2c(cc1OC)C(=O)C(CC1CCN(Cc3ccccc3F)CC1)C2 (stereo not drawn)	13.7
COc1cc2c(cc1OC)C(=O)C(CC1CCN(Cc3cccc(C)n3)CC1)C2 (stereo not drawn)	9.7
COc1cc2c(cc1OC)C(=O)C(CC1CCN(Cc3cccc(C)c3)CC1)C2 (stereo not drawn)	12.6
COc1cc2c(cc1OC)C(=O)C(CC1CCN(Cc3ncccc3C)CC1)C2 (stereo not drawn)	8.4
